Tests used:
[1] = molecular target: T1, CDK9/CycT1 (Homo sapiens, UniProt P50750); experiment: CDK9/CycT1 high ATP kinase assay (TR-FRET, 2 mM ATP); type: biochemical; conditions: 2 mM ATP (high ATP); median; read-out: CDK9/CyclinT1, 2 mM ATP (high ATP), IC50 (median)
T1 construct: Recombinant full-length His-tagged human CDK9 and CycT1; purchased Life Technologies PV4131; host or cells: insect cells
Method in brief: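 Full-length His-tagged human CDK9/CycT1 (insect cell, ~0.5 μg/mL) preincubated 15 min at 22 °C with compound in Tris pH 8.0, MgCl2, DTT buffer before reaction with biotinylated peptide substrate at high ATP (2 mM).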

[2] = system: CAL-120, human breast adenocarcinoma cells; experiment: Proliferation assay CAL-120 (crystal violet, 4 days); type: cell-based; conditions: Homo sapiens, CAL-120, 96 h, CAL-120 cells, median, read-out: Prolif-CAL-120, IC50-[mol/l] (median)
Method in brief: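 IC50 from a 4-parameter fit of crystal violet absorbance (595 nm), scaled between the day-of-dosing plate (0%) and vehicle cells (100%). MDA-MB-231 or CAL-120 cells were treated for 4 days with 0.01–10 micromol/L compound in 0.1% DMSO after 24 h attachment.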

T1 sequence (P50750 whole entry): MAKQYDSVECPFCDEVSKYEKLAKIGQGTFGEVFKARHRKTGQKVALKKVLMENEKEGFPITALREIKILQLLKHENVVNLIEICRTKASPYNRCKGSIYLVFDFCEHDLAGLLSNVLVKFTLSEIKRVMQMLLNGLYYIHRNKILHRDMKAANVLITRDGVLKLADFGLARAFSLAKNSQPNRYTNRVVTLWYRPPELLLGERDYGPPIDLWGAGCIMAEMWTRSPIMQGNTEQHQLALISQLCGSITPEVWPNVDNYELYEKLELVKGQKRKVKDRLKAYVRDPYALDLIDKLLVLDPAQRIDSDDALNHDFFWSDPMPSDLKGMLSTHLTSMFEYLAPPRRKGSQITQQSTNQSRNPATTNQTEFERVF
T1 sequence (O60563 whole entry partner): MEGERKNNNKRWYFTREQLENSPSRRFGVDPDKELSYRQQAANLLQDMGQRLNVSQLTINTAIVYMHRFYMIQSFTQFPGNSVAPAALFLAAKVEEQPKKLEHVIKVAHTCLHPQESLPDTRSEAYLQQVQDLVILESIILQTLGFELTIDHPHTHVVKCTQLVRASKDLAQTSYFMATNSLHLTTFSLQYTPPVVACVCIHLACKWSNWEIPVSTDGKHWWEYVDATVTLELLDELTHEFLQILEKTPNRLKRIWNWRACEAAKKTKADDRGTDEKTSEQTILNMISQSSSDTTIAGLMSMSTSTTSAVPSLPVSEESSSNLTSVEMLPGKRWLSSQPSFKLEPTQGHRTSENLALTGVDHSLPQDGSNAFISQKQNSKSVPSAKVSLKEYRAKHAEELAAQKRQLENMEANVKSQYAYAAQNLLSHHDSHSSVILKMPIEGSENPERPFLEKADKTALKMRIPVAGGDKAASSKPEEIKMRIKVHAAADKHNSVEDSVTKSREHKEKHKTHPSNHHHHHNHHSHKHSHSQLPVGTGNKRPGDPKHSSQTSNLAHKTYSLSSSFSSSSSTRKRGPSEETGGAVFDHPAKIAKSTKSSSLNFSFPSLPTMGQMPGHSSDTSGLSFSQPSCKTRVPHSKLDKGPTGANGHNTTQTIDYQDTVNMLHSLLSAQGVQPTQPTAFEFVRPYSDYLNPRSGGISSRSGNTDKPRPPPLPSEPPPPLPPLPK

IC50 [1] [nM] | IC50 [2] [nM] | SMILES
> 20000 | 32.8 | Brc1cnn2c(NCc3nc4ccccc4[nH]3)nc(N3C[C@H]4CN[C@H]4C3)nc12.O=C(O)C(F)(F)F [Example 255, trifluoroacetic acid-N-[(1H-benzimidazol-2-yl)methyl]-8-bromo-2-[(1R,5R)-3,6-diazabicyclo[3.2.0]heptan-3-yl]pyrazolo[1,5-a][1,3,5]triazin-4-amine (1/1)]
> 20000 | 9.97 | NC1CCN(c2nc(NCc3nc4ccccc4[nH]3)n3ncc(Br)c3n2)CC1 [Example 256, 2-(4-aminopiperidin-1-yl)-N-[(1H-benzimidazol-2-yl)methyl]-8-bromopyrazolo[1,5-a][1,3,5]triazin-4-amine]
> 20000 | 10.8 | COc1ccc2[nH]c(CNc3nc(N4CCOCC4)nc4c(C(F)(F)F)cnn34)nc2c1 [Example 257, N-[(5-methoxy-1H-benzimidazol-2-yl)methyl]-2-(morpholin-4-yl)-8-(trifluoromethyl)pyrazolo[1,5-a][1,3,5]triazin-4-amine]
> 20000 | 27.9 | NC12CC1CN(c1nc(NCc3nc4ccccc4[nH]3)n3ncc(Br)c3n1)C2 (centres unmarked) [Example 258, 2-(1-amino-3-azabicyclo[3.1.0]hexan-3-yl)-N-(1H-benzimidazol-2-ylmethyl)-8-bromo-pyrazolo[1,5-a][1,3,5]triazin-4-amine]
7370 | 11.9 | N[C@H]1CN(c2nc(NCc3nc4ccccc4[nH]3)n3ncc(Br)c3n2)CC12CC2 [Example 259, 2-[(7R)-7-amino-5-azaspiro[2.4]heptan-5-yl]-N-[(1H-benzimidazol-2-yl)methyl]-8-bromopyrazolo[1,5-a][1,3,5]triazin-4-amine]
> 20000 | 60.9 | Fc1ccc2[nH]c(CNc3nc(N4CCOCC4)nc4c(C5CCCC5)cnn34)nc2c1F [Example 262, 8-cyclopentyl-N-[(4,5-difluoro-1H-benzimidazol-2-yl)methyl]-2-(morpholin-4-yl)pyrazolo[1,5-a][1,3,5]triazin-4-amine]
> 20000 | 28.9 | c1ccc2[nH]c(CNc3nc(N4CCOCC4)nc4c(C5CCC5)cnn34)nc2c1 [Example 263, N-[(1H-benzimidazol-2-yl)methyl]-8-cyclobutyl-2-(morpholin-4-yl)pyrazolo[1,5-a][1,3,5]triazin-4-amine]
> 20000 | 8.7 | Fc1ccc2[nH]c(CNc3nc(N4CCOCC4)nc4c(C5CCC5)cnn34)nc2c1F [Example 264, 8-cyclobutyl-N-[(4,5-difluoro-1H-benzimidazol-2-yl)methyl]-2-(morpholin-4-yl)pyrazolo[1,5-a][1,3,5]triazin-4-amine]
> 20000 | 35.4 | FC(F)(F)Cc1cnn2c(NCc3nc4ccccc4[nH]3)nc(N3CCOCC3)nc12.O=CO [Example 265, formic acid-N-[(1H-benzimidazol-2-yl)methyl]-2-(morpholin-4-yl)-8-(2,2,2-trifluoroethyl)pyrazolo[1,5-a][1,3,5]triazin-4-amine (1/1)]
> 20000 | 102 | NC1(C(F)(F)F)CCN(c2nc(NCc3nc4ccccc4[nH]3)n3ncc(Br)c3n2)C1 (centres unmarked) [Example 266, 2-[3-amino-3-(trifluoromethyl)pyrrolidin-1-yl]-N-(1H-benzimidazol-2-ylmethyl)-8-bromo-pyrazolo[1,5-a][1,3,5]triazin-4-amine]
> 20000 | 69.4 | Brc1cnn2c(NCc3nc4ccccc4[nH]3)nc(N3C[C@@H]4CN[C@@H]4C3)nc12.O=C(O)C(F)(F)F [Example 267, trifluoroacetic acid-N-[(1H-benzimidazol-2-yl)methyl]-8-bromo-2-[(1S,5S)-3,6-diazabicyclo[3.2.0]heptan-3-yl]pyrazolo[1,5-a][1,3,5]triazin-4-amine (1/1)]
> 20000 | 5.59 | Fc1ccc2[nH]c(CNc3nc(N4CCOCC4)nc4c(CC(F)(F)F)cnn34)nc2c1F [Example 268, N-[(4,5-difluoro-1H-benzimidazol-2-yl)methyl]-2-(morpholin-4-yl)-8-(2,2,2-trifluoroethyl)pyrazolo[1,5-a][1,3,5]triazin-4-amine]
> 20000 | 7.31 | Brc1cnn2c(NCc3nc4ccccc4[nH]3)nc(N3C[C@H]4C[C@@H]3CN4)nc12 [Example 269, N-[(1H-benzimidazol-2-yl)methyl]-8-bromo-2-[(1R,4R)-2,5-diazabicyclo[2.2.1]heptan-2-yl]pyrazolo[1,5-a][1,3,5]triazin-4-amine]
> 20000 | 6.92 | Brc1cnn2c(NCc3nc4ccccc4[nH]3)nc(N3C[C@@H]4C[C@H]3CN4)nc12 [Example 270, N-[(1H-benzimidazol-2-yl)methyl]-8-bromo-2-[(1S,4S)-2,5-diazabicyclo[2.2.1]heptan-2-yl]pyrazolo[1,5-a][1,3,5]triazin-4-amine]
> 20000 | 23.2 | Brc1cnn2c(NCc3nc4ccccc4[nH]3)nc(N3CC4CCNC4C3)nc12 (centres unmarked) [Example 271, 2-(2,3,3a,4,6,6a-hexahydro-1H-pyrrolo[2,3-c]pyrrol-5-yl)-N-(1H-benzimidazol-2-ylmethyl)-8-bromo-pyrazolo[1,5-a][1,3,5]triazin-4-amine]
> 20000 | 22.4 | CNC1CCN(c2nc(NCc3nc4ccccc4[nH]3)n3ncc(Br)c3n2)CC1 [Example 272, N-[(1H-benzimidazol-2-yl)methyl]-8-bromo-2-[4-(methylamino)piperidin-1-yl]pyrazolo[1,5-a][1,3,5]triazin-4-amine]
> 20000 | 4.49 | Fc1ccc2[nH]c(CNc3nc(N4CCOCC4)nc4c(C(F)(F)F)cnn34)nc2c1 [Example 273, N-[(5-fluoro-1H-benzimidazol-2-yl)methyl]-2-(morpholin-4-yl)-8-(trifluoromethyl)pyrazolo[1,5-a][1,3,5]triazin-4-amine]
> 20000 | 4.89 | Fc1cccc2[nH]c(CNc3nc(N4CCOCC4)nc4c(C(F)(F)F)cnn34)nc12 [Example 274, N-[(4-fluoro-1H-benzimidazol-2-yl)methyl]-2-(morpholin-4-yl)-8-(trifluoromethyl)pyrazolo[1,5-a][1,3,5]triazin-4-amine]
> 20000 | 3.88 | FC(F)(F)c1cnn2c(NCc3nc4cc(Cl)ccc4[nH]3)nc(N3CCOCC3)nc12 [Example 275, N-[(5-chloro-1H-benzimidazol-2-yl)methyl]-2-(morpholin-4-yl)-8-(trifluoromethyl)pyrazolo[1,5-a][1,3,5]triazin-4-amine]
> 20000 | 165 | Fc1ccc2[nH]c(CNc3nc(N4CCOCC4)nc4c(C5CCOCC5)cnn34)nc2c1F [Example 276, N-[(4,5-difluoro-1H-benzimidazol-2-yl)methyl]-2-(morpholin-4-yl)-8-(oxan-4-yl)pyrazolo[1,5-a][1,3,5]triazin-4-amine]
> 20000 | 30.9 | COc1cccc2[nH]c(CNc3nc(N4CCOCC4)nc4c(CC(F)(F)F)cnn34)nc12 [Example 277, N-[(4-methoxy-1H-benzimidazol-2-yl)methyl]-2-(morpholin-4-yl)-8-(2,2,2-trifluoroethyl)pyrazolo[1,5-a][1,3,5]triazin-4-amine]
> 20000 | 7.54 | Fc1ccc2[nH]c(CNc3nc(N4CCOCC4)nc4c(C5CC5(F)F)cnn34)nc2c1F (centres unmarked) [Example 278, N-[(4,5-difluoro-1H-benzimidazol-2-yl)methyl]-8-(2,2-difluorocyclopropyl)-2-(morpholin-4-yl)pyrazolo[1,5-a][1,3,5]triazin-4-amine]
> 20000 | 17.2 | FC1(F)CC1c1cnn2c(NCc3nc4ccccc4[nH]3)nc(N3CCOCC3)nc12 (centres unmarked) [Example 279, N-[(1H-benzimidazol-2-yl)methyl]-8-(2,2-difluorocyclopropyl)-2-(morpholin-4-yl)pyrazolo[1,5-a][1,3,5]triazin-4-amine]
> 20000 | 26.1 | Brc1cnn2c(NCc3nc4ccccc4[nH]3)nc(N3C[C@H]4CNC[C@H]4C3)nc12 [Example 283, N-[(1H-benzimidazol-2-yl)methyl]-8-bromo-2-[(3aR,6aS)-hexahydropyrrolo[3,4-c]pyrrol-2(1H)-yl]pyrazolo[1,5-a][1,3,5]triazin-4-amine]
> 20000 | 73.8 | Brc1cnn2c(NCc3nc4ccccc4[nH]3)nc(NCC3CC3)nc12 [Example 284, N^4-[(1H-benzimidazol-2-yl)methyl]-8-bromo-N^2-(cyclopropylmethyl)pyrazolo[1,5-a][1,3,5]triazine-2,4-diamine]
> 20000 | 80.3 | CC(C)CNc1nc(NCc2nc3ccccc3[nH]2)n2ncc(Br)c2n1 [Example 285, N^4-[(1H-benzimidazol-2-yl)methyl]-8-bromo-N^2-(2-methylpropyl)pyrazolo[1,5-a][1,3,5]triazine-2,4-diamine]
> 20000 | 33.2 | CN(CC1CC1)c1nc(NCc2nc3ccccc3[nH]2)n2ncc(Br)c2n1 [Example 287, N^4-[(1H-benzimidazol-2-yl)methyl]-8-bromo-N^2-(cyclopropylmethyl)-N^2-methylpyrazolo[1,5-a][1,3,5]triazine-2,4-diamine]

SMILES | IC50 [1] [nM] | IC50 [2] [nM]
N[C@H]1[C@@H]2C[C@H]1CN(c1nc(NCc3nc4ccccc4[nH]3)n3ncc(Br)c3n1)C2 [Example 288, 2-[(1R,5S,6r)-6-amino-3-azabicyclo[3.1.1]heptan-3-yl]-N-[(1H-benzimidazol-2-yl)methyl]-8-bromopyrazolo[1,5-a][1,3,5]triazin-4-amine] | > 20000 | 1.8

— patent publication US20230117034A1, “PYRAZOLOTRIAZINES” (Bayer Aktiengesellschaft, priority 2019, published 2023)
